From patent US12678412B2, “Substituted tolans for the modulation of microbial colonization” (BioMendics, LLC, priority 2017, dated 2026)

What was measured:
[1] = tested on: Candida albicans ATCC 64550; test: Colony forming assay, spread plate, Candida albicans; format: cell-based; conditions: Formulation C, compared to low dose, vehicle, Tobramycin and untreated control, 24 h, FIG. 8
Method: A fresh culture of pathogenic isolate was used in these examples. The bacterial strains used were Methicillin Resistant Staphylococcus aureus (MRSA USA 300), Pseudomonas aeruginosa ATCC 27312, and Candida albicans ATCC 64550.
FIG. 5 illustrates the spread plate method used in these examples. In sum, agar plates were made, bacteria were diluted to 10^6 or 10^8 CFU/mL, bacteria and drug were mixed together and then plated. Glass spreading beads were used because they give a better bacterial spread. Plates were incubated for 24 hrs then the colonies that formed were counted.
Proliferating cultures of Pseudomonas aeruginosa (PA, ATCC 27312) and Candida albicans (CA, ATCC 64550) were used in a colony forming assay. Freeze-dried bacteria cultures were recovered by swabbing a 3-cm diameter growth area and resuspending it to obtain a final inoculum suspension of approximately 10^6 CFU/mL. The concentration was confirmed using historical optical density measurements. […] Plates were photographed and counted. […]
Colony counts for each treatment were tabulated and the Log of the colony forming units/mL (Log CFU/mL) were determined. The mean and standard deviation of the Log CFU/mL were calculated for each treatment. […]

Acinetobacter baumannii = test: Colony forming assay, 24 h plate assay, Acinetobacter baumannii; format: cell-based; conditions: Transcutol formulation, FIG. 11
Method: Proliferating cultures of Acinetobacter baumannii were used in a colony forming assay. Frozen stock cultures of Acinetobacter baumannii were thawed and grown overnight in tryptic soy broth (TSB) with shaking at 37° C. The overnight culture (0.5-1.0 mL) was added to 100 mL TSB and grown at 37° C. with shaking and monitored for an optical density of 0.20-0.38 to obtain a final inoculum suspension of approximately 10^8 CFU/mL.
BM3103 was dissolved into Transcutol (diethylene glycol monoethyl ether) at 2.5% w/v and vortexed until dissolved. This concentration was then serial diluted to achieve the remaining concentrations tested. Before plating, 100 μL of the final inoculum (10^8 CFU/mL) was mixed with 20 μL TSB broth and 80 μL of BM3103 doses or vehicle. Tobramycin, 600 μg/mL, served as the positive control. The final plating concentrations for BM3103 were 1, 0.5, 0.25, and 0.1% w/v (44 mM, 22 mM, 11 mM, 4 mM) BM3103. Vehicle and BM3103 formulations contained matching final concentration of 40% v/v Transcutol.
The Transcutol formulations combined with the inoculum were plated onto TSB agar plates. The plates were grown at 37° C. for 24 h, imaged, and the bacteria colonies were counted. The experiment was done four times at each concentration level described above. Colony counts for each treatment were tabulated and the Log of the colony forming units/mL (Log CFU/mL) were determined. The mean and the standard error of the mean were calculated for each treatment.

COc1ccc(C#Cc2ccc(O)cc2)cc1 [BM3103, 4-hydroxy-4′-methoxytolan] was tested, and the “Reduction of CA counts” value ([1]; high dose 0.5% w/v, 22 mM) was “about 4 fold”, the “Reduction of CA counts” value ([1]; medium dose 0.25% w/v, 11 mM) was “about 4 fold” and the “Reduction of Acinetobacter baumannii bacterial counts” value (Acinetobacter baumannii; 0.1%) was “no reduction”. The “Reduction of Acinetobacter baumannii bacterial counts” value (Acinetobacter baumannii; 0.25%) was “slight reduction”, the “Reduction of Acinetobacter baumannii bacterial counts” value (Acinetobacter baumannii; 0.5%) was 4 fold and the “Reduction of Acinetobacter baumannii bacterial counts” value (Acinetobacter baumannii; 1%) was “almost a complete reduction”.
